Laboratory results reported in ChEMBL document CHEMBL4184141, “Investigating the Antibacterial Activity of Biphenylthiazoles against Methicillin- and Vancomycin-Resistant Staphylococcus aureus (MRSA and VRSA)” (J Med Chem, 2017).
Converted amounts (≈) assume the structure as drawn. The source made the active and inactive calls. The calls are words filed in the database; no cut-off is given here.

How the values were obtained:
[1] = tested on: Staphylococcus aureus; assay: Antibacterial activity against methicillin-resistant Staphylococcus aureus 2658 RCMB up to 20 hrs by broth microdilution assay; assay type: functional
[2] = tested on: Staphylococcus aureus; assay: Antibacterial activity against methicillin-resistant Staphylococcus aureus USA400 NRS123 up to 20 hrs by broth microdilution assay; assay type: functional; conditions: USA400 NRS123, 20 h
[3] = tested on: Staphylococcus aureus; assay: Bactericidal activity against vancomycin-resistant Staphylococcus aureus VRS10 up to 18 hrs by broth microdilution assay; assay type: functional; conditions: VRS10, 18 h, read-out: MBC99.9
[4] = tested on: Staphylococcus aureus; assay: Antibacterial activity against Staphylococcus aureus RN4220 up to 20 hrs by broth microdilution assay; assay type: functional; conditions: RN4220, 20 h
[5] = tested on: Staphylococcus aureus; assay: Antibacterial activity against vancomycin-resistant Staphylococcus aureus VRS10 up to 20 hrs by broth microdilution assay; assay type: functional; conditions: VRS10, 20 h
[6] = tested on: Staphylococcus aureus; assay: Bactericidal activity against vancomycin-resistant Staphylococcus aureus VRS12 up to 18 hrs by broth microdilution assay; assay type: functional; conditions: VRS12, 18 h, read-out: MBC99.9
[7] = tested on: Staphylococcus aureus; assay: Bactericidal activity against Staphylococcus aureus RN4220 up to 18 hrs by broth microdilution assay; assay type: functional; conditions: RN4220, 18 h, read-out: MBC99.9
[8] = tested on: Staphylococcus aureus; assay: Antibacterial activity against vancomycin-resistant Staphylococcus aureus VRS11a up to 20 hrs by broth microdilution assay; assay type: functional
[9] = tested on: Staphylococcus aureus; assay: Antibacterial activity against methicillin-resistant Staphylococcus aureus NRS119 up to 20 hrs by broth microdilution assay; assay type: functional; conditions: NRS119, 20 h
[10] = tested on: Staphylococcus aureus; assay: Antibacterial activity against vancomycin-resistant Staphylococcus aureus VRS12 up to 20 hrs by broth microdilution assay; assay type: functional; conditions: VRS12, 20 h
[11] = tested on: Staphylococcus aureus; assay: Bactericidal activity against methicillin-resistant Staphylococcus aureus USA400 NRS123 up to 18 hrs by broth microdilution assay; assay type: functional; conditions: USA400 NRS123, 18 h, read-out: MBC99.9
[12] = tested on: Staphylococcus aureus; assay: Bactericidal activity against methicillin-resistant Staphylococcus aureus NRS119 up to 18 hrs by broth microdilution assay; assay type: functional; conditions: NRS119, 18 h, read-out: MBC99.9
[13] = tested on: Staphylococcus aureus; assay: Bactericidal activity against vancomycin-resistant Staphylococcus aureus VRS11a up to 18 hrs by broth microdilution assay; assay type: functional; conditions: read-out: MBC99.9
[14] = Apparent permeability of the compound across basolateral side to apical side in human Caco2 cells by LC-MS/MS analysis; assay type: ADME, cell-based; conditions: Caco-2
[15] = tested on: Staphylococcus aureus; assay: Bactericidal activity against methicillin-resistant Staphylococcus aureus USA300 assessed as time required for 3 log10CFU reduction in bacterial load at 4 times MIC by time kill assay; assay type: functional
[16] = Aqueous solubility of the compound in PBS after 2 hrs by turbidimetric method; assay type: physicochemical
[17] = Efflux ratio of permeability from basolateral to apical side over apical to basolateral side of human Caco2 cells by LC-MS/MS analysis; assay type: ADME, cell-based; conditions: Caco-2
[18] = tested on: Staphylococcus aureus; assay: Bactericidal activity against methicillin-resistant Staphylococcus aureus USA300 assessed as time required to reduce bacterial load to 0 at 4 times MIC by time-kill assay; assay type: functional
[19] = tested on: Staphylococcus aureus; assay: Potentiation of vancomycin-induced antibacterial activity against vancomycin-resistant Staphylococcus aureus VRS10 assessed as reduction in vancomycin MIC after 20 hrs by checkerboard assay; assay type: functional
[20] = Intrinsic clearance in human liver microsomes in absence of NADPH by LC-MS/MS analysis; assay type: ADME, microsome; conditions: read-out: CLH
[21] = Intrinsic clearance in human liver microsomes in presence of NADPH by LC-MS/MS analysis; assay type: ADME, microsome; conditions: read-out: CLH
[22] = tested on: Staphylococcus aureus; assay: Potency index, ratio of vancomycin MIC to compound MIC for antibacterial activity against vancomycin-resistant Staphylococcus aureus VRS12; assay type: functional
[23] = tested on: Staphylococcus aureus; assay: Synergistic antibacterial activity against vancomycin-resistant Staphylococcus aureus VRS10 after 20 hrs in presence of vancomycin by checkerboard assay; assay type: functional; conditions: VRS10, 20 h
[24] = tested on: Staphylococcus aureus; assay: Potency index, ratio of vancomycin MIC to compound MIC for antibacterial activity against vancomycin-resistant Staphylococcus aureus VRS10; assay type: functional
[25] = tested on: HRT-18 cell line; assay: Cytotoxicity against human HRT18 cells at 64 microg/ml after 6 hrs by MTS assay; assay type: cell-based; conditions: hrt-18, 6 h
[26] = Half life in human liver microsomes in presence of NADPH by LC-MS/MS analysis; assay type: ADME, microsome
[27] = Half life in human liver microsomes in absence of NADPH by LC-MS/MS analysis; assay type: ADME, microsome
[28] = tested on: Staphylococcus aureus; assay: Potentiation of vancomycin-induced antibacterial activity against vancomycin-resistant Staphylococcus aureus VRS10 assessed as vancomycin MIC after 20 hrs by checkerboard assay; assay type: functional; conditions: VRS10, 20 h
[29] = tested on: Staphylococcus aureus; assay: Antibacterial activity against methicillin-resistant Staphylococcus aureus USA300 infected in Caenorhabditis elegans AU37 harboring (sek-1(km4);glp-4(bn2)I) mutant assessed as reduction in bacterial burden at 20 ug/ml after 18 hrs by microscopic analysis relative to control; assay type: functional; design: scale not given: the % may be the effect or the level left
[30] = tested on: Staphylococcus aureus; assay: Potentiation of vancomycin-induced antibacterial activity against vancomycin-resistant Staphylococcus aureus VRS10 assessed as fold reduction in vancomycin MIC at 0.5 times MIC after 20 to 22 hrs; assay type: functional
[31] = tested on: Staphylococcus aureus; assay: Potency index, ratio of vancomycin MIC to compound MIC for antibacterial activity against vancomycin-resistant Staphylococcus aureus VRS11a; assay type: functional
[32] = tested on: Enterococcus faecium; assay: Antibacterial activity against vancomycin-resistant Enterococcus faecium ATCC 700221 up to 20 hrs by broth microdilution assay; assay type: functional; conditions: ATCC 700221, 20 h
[33] = tested on: Pseudomonas aeruginosa; assay: Antibacterial activity against Pseudomonas aeruginosa ATCC 15442 up to 20 hrs by broth microdilution assay; assay type: functional; conditions: ATCC 15442, 20 h
[34] = tested on: HRT-18 cell line; assay: Cytotoxicity against human HRT18 cells up to 32 microg/ml after 6 hrs by MTS assay; assay type: cell-based; conditions: hrt-18, 6 h

Cc1nc(-c2ccc(-c3ccccc3)cc2)sc1-c1ccnc(N2CC(O)C2)n1
MIC [1]: 3.12 µg/mL (≈ 7.79 µM)

CNC(=N)Nc1nccc(-c2sc(-c3ccc(-c4ccccc4)cc3)nc2C)n1
MIC [2]: 16 µg/mL (≈ 39.9 µM) | MBC [3]: 64 µg/mL (≈ 160 µM) | MIC [4]: 8 µg/mL (≈ 20 µM) | MIC [5]: 32 µg/mL (≈ 79.9 µM) | MBC [6]: 64 µg/mL (≈ 160 µM) | MBC [7]: 32 µg/mL (≈ 79.9 µM) | MIC [8]: 32 µg/mL (≈ 79.9 µM) | MIC [1]: 1.56 µg/mL (≈ 3.9 µM) | MIC [9]: 8 µg/mL (≈ 20 µM) | MIC [10]: 64 µg/mL (≈ 160 µM) | MBC [11]: 16 µg/mL (≈ 39.9 µM) | MBC [12]: 16 µg/mL (≈ 39.9 µM) | MBC [13]: 64 µg/mL (≈ 160 µM)

Cc1nc(-c2ccc(-c3ccccc3)cc2)sc1-c1ccnc(NC(=N)N2CCCC2)n1
MIC [1]: 12.5 µg/mL (≈ 28.4 µM)

Cc1nc(-c2ccc(-c3ccccc3)cc2)sc1-c1ccnc(NC(=N)c2ccncc2)n1
MIC [1]: > 25 µg/mL

Cc1nc(-c2ccc(-c3ccccc3)cc2)sc1-c1ccnc(-c2cccnc2)n1
MIC [1]: > 25 µg/mL

Cc1nc(-c2ccc(-c3ccccc3)cc2)sc1-c1ccnc(N2CCCC2)n1
MIC [1]: > 25 µg/mL

C/C(=N\NC(=N)N)c1sc(-c2ccc(-c3ccccc3)cc2)nc1C
Papp B→A [14]: 1.2 ×10⁻⁶ cm/s | Time [15]: 10 h | MIC [1]: 1.6 to 2.4 µg/mL (≈ 4.58 to 6.87 µM) | solubility kinetic at 2 h [16]: 2.7 µM (≈ 0.944 µg/mL) | efflux ratio [17]: > 2

Cc1nc(-c2ccc(-c3ccccc3)cc2)sc1-c1ccncn1
MIC [1]: > 25 µg/mL

Cc1nc(-c2ccc(-c3ccccc3)cc2)sc1-c1ccnc(NC(=N)N2CCN(C)CC2)n1
Time [18]: 2 h | fractional inhibitory concentration index (FICI) [19]: 1.02 | microsomal CLint [20]: < 9.6 µL/min/mg | MIC [2]: 1 µg/mL (≈ 2.13 µM) | microsomal CLint [21]: 15.3 µL/min/mg | Ratio [22]: 8 | MIC [23]: 0.13 µg/mL | MBC [3]: 8 µg/mL (≈ 17 µM) | Ratio [24]: 100 | Papp B→A [14]: 1.7 ×10⁻⁶ cm/s | Activity [25]: Toxic | MIC [4]: 2 µg/mL (≈ 4.26 µM) | MIC [5]: 4 to 8 µg/mL (≈ 8.52 to 17 µM) | MBC [6]: 8 µg/mL (≈ 17 µM) | half-life [26]: 2.52 h | MBC [7]: 8 µg/mL (≈ 17 µM) | MIC [8]: 4 µg/mL (≈ 8.52 µM) | half-life [27]: > 4 h | MIC [1]: 0.39 µg/mL (≈ 0.83 µM) | MIC [9]: 2 µg/mL (≈ 4.26 µM) | MIC [28]: 128 to 256 µg/mL | Activity [29]: 65% | solubility kinetic at 2 h [16]: 2.3 µM (≈ 1.08 µg/mL) | Activity [30]: inactive | efflux ratio [17]: > 2 | Ratio [31]: 100 | MIC [32]: 16 µg/mL (≈ 34.1 µM) | MIC [10]: 2 µg/mL (≈ 4.26 µM) | MIC [33]: > 64 µg/mL | MBC [11]: 2 µg/mL (≈ 4.26 µM) | Activity [34]: Non-Toxic | MBC [12]: 4 µg/mL (≈ 8.52 µM) | MBC [13]: 8 µg/mL (≈ 17 µM)

Cc1nc(-c2ccc(-c3ccccc3)cc2)sc1-c1ccnc(NN)n1
MIC [1]: 1.56 µg/mL (≈ 4.34 µM)

Cc1nc(-c2ccc(-c3ccccc3)cc2)sc1-c1ccnc(N2CCOCC2)n1
MIC [1]: 3.12 µg/mL (≈ 7.53 µM)

Cc1nc(-c2ccc(-c3ccccc3)cc2)sc1-c1ccnc(NC(C)C)n1
MIC [1]: > 25 µg/mL

Cc1nc(-c2ccc(-c3ccccc3)cc2)sc1-c1ccnc(NN2CCOCC2)n1
MIC [1]: 3.12 µg/mL (≈ 7.26 µM)

CCCCc1ccc(-c2nc(C)c(-c3ccnc(N)n3)s2)cc1
MIC [1]: 3.6 µg/mL (≈ 11.1 µM)

Cc1nc(-c2ccc(-c3ccccc3)cc2)sc1-c1ccnc(N(C)C)n1
MIC [1]: > 25 µg/mL

Cc1nc(-c2ccc(-c3ccccc3)cc2)sc1-c1ccnc(-c2ccccn2)n1
MIC [1]: > 25 µg/mL

Cc1nc(-c2ccc(-c3ccccc3)cc2)sc1-c1ccnc(NC(=N)c2cccnc2)n1
MIC [1]: > 25 µg/mL

Cc1nc(-c2ccc(-c3ccccc3)cc2)sc1-c1ccnc(N=C(N(C)C)N(C)C)n1
MIC [1]: > 25 µg/mL

CN[C@H](CC(C)C)C(=O)N[C@H]1C(=O)N[C@@H](CC(N)=O)C(=O)N[C@H]2C(=O)N[C@H]3C(=O)N[C@H](C(=O)N[C@H](C(=O)O)c4cc(O)cc(O)c4-c4cc3ccc4O)[C@H](O)c3ccc(c(Cl)c3)Oc3cc2cc(c3O[C@@H]2O[C@H](CO)[C@@H](O)[C@H](O)[C@H]2O[C@H]2C[C@](C)(N)[C@H](O)[C@H](C)O2)Oc2ccc(cc2Cl)[C@H]1O [VANCOMYCIN]
Time [18]: 24 h | MBC [3]: 512 µg/mL (≈ 353 µM) | MIC [5]: 128 to 512 µg/mL (≈ 88.3 to 353 µM) | MBC [6]: 256 µg/mL (≈ 177 µM) | MBC [7]: 1 µg/mL (≈ 0.69 µM) | MIC [8]: > 512 µg/mL | MIC [1]: 1.56 µg/mL (≈ 1.08 µM) | MIC [32]: > 64 µg/mL | MIC [10]: 16 µg/mL (≈ 11 µM) | MBC [11]: 1 µg/mL (≈ 0.69 µM) | MBC [12]: 1 µg/mL (≈ 0.69 µM) | MBC [13]: > 512 µg/mL
